Results as given in patent US11858970B1, “Chili pepper seed isolated oligopeptide FTLE and application thereof in preventing or treating cancer” (CHINA AGRICULTURAL UNIVERSITY, priority 2022, dated 2024).

Tested on: HepG2 cells
Assay: HepG2 cell proliferation measured by MTT method
Type: cell-based
Conditions: peptide at 0.1, 0.3 and 0.6 mM, 24 hours, compared with other synthetic peptides
Protocol: Chemical systhesis was conducted in accordance with the peptide sequences obtained by mass spectrometry identification analysis of Example 1 to obtain synthetic peptides. The effect of each peptide on HepG2 cell proliferation was studied, and the specific steps were as follows:
1) HepG2 cell culture: hepG2 cells were obtained from the ATCC cell bank and were cultured in a DMEM medium containing 10% FBS at 37° C. in a 5% CO2 cell incubator. Cells were cultured in a 25 cm ^2 flask, passaged when cells were grown to a density of 70% to 90%, and seeded in a 96-well plate.
2) Peptide fragment treatment: after 24 hours of cell culture in the 96-well plate, the original DMEM medium was aspirated from the wells. DMEM containing peptide fragments at concentrations of 0.1, 0.3, and 0.6 mM were added to each well to continue culturing for 24 hours.
3) Cell proliferation rate measured by MTT method: MTT at a concentration of 5 mg/mL was added to a 96-well plate in 20 μL per well. After incubation for 4 hours, the liquid was aspirated from each well. 150 μL DMSO was added to each well. The absorbance was measured after reacting for 20 min.

Phe-Thr-Leu-Glu (FTLE) [oligopeptide identified in chili pepper seed zymolyte, chemically synthesized for testing]
HepG2 cell inhibition rate: better HepG2 cell inhibition rate than other oligopeptides
